Source: patent US20230183218A1, “CONDENSED SUBSTITUTED HYDROPYRROLES AS ANTAGONISTS OF THE MUSCARINIC ACETYLCHOLINE RECEPTOR M4” (Vanderbilt University, priority 2020, published 2023)

How the values were obtained:
Rat M4 = target: T1, Rat M4 (Rattus norvegicus, UniProt P08485); assay: mAChR M4 cell-based functional assay (calcium flux, antagonist mode vs EC80 acetylcholine), rat M4/Gqi5/CHO-K1 cells; conditions: for remaining activity at 30 µM: CHO-K1, % ACh maximum at 30 μM, rat M4, read-out: Rat M4 Emin (%); for IC50: decrease of response elicited by EC80 acetylcholine, rat M4/Gqi5 CHO-K1 cells
T1 construct: expressed in transfected cells; host or cells: CHO-K1 (ATCC), stably co-expressing chimeric G protein Gqi5
T1 sequence (P08485 1-478): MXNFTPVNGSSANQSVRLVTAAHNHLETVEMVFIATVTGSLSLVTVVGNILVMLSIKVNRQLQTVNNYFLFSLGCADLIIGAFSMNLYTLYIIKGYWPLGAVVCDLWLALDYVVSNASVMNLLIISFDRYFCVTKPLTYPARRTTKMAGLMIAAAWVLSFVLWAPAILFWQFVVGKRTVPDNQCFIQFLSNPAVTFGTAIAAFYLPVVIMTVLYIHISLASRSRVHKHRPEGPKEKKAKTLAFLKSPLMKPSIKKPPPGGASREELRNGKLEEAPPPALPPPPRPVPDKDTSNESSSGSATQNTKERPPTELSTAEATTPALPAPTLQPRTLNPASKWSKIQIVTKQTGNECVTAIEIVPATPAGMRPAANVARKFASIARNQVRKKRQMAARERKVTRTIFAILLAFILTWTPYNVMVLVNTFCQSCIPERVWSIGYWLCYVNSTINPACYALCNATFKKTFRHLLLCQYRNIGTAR
Method in brief: (§1)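 CHO-K1 cells stably expressing human or rat M4 with Gqi5, Fluo-4 loaded; calcium measured by fluorescence ratio on FDSS. Compound added, then EC20 acetylcholine at 143 s and EC80 at 268 s; IC50 from decrease of EC80 response, four-parameter logistic fit.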

Human M4 = target: T2, Human M4 (Homo sapiens, UniProt P08173); assay: mAChR M4 cell-based functional assay (calcium flux, antagonist mode vs EC80 acetylcholine), human M4/Gqi5/CHO-K1 cells; conditions: for remaining activity at 30 µM: CHO-K1, % ACh maximum at 30 μM, human M4, read-out: Human M4 Emin (%); for IC50: decrease of response elicited by EC80 acetylcholine, human M4/Gqi5 CHO-K1 cells
T2 construct: expressed in transfected cells; host or cells: CHO-K1 (ATCC), stably co-expressing chimeric G protein Gqi5
T2 sequence (P08173 1-479): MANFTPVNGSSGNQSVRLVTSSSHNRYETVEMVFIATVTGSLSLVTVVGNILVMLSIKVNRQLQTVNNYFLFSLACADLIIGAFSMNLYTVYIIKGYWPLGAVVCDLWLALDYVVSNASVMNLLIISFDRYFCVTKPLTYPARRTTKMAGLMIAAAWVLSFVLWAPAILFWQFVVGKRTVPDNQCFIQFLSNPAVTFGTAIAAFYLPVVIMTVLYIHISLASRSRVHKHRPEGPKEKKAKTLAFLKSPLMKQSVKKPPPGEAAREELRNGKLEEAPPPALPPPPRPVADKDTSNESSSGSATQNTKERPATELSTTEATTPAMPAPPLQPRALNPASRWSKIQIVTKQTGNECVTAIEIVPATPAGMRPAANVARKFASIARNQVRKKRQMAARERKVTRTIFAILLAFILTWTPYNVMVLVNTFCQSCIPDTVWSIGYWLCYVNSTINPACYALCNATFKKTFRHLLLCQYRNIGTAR
Method in brief: as §1

remaining activity at 30 µM (Rat M4) [%] | IC50 (Rat M4) [µM] | remaining activity at 30 µM (Human M4) [%] | IC50 (Human M4) [µM] | SMILES
11 | 1.26 | 5 | 0.0763 | Cc1cccnc1CN1C[C@H]2C[C@H](Nc3ccc(S(=O)(=O)C4CCCCC4)nn3)C[C@H]2C1 [compound 43, (3aR,5s,6aS)-N-(6-(cyclohexylsulfonyl)pyridazin-3-yl)-2-((3-methylpyridin-2-yl)methyl)octahydrocyclopenta[c]pyrrol-5-amine]
6 | 2.05 | 3 | 0.72 | Cc1cc2c(cc1CN1C[C@H]3C[C@H](Nc4ccc(S(=O)(=O)C5CCCCC5)nn4)C[C@H]3C1)OCO2 [compound 44, (3aR,5s,6aS)-N-(6-(cyclohexylsulfonyl)pyridazin-3-yl)-2-((6-methylbenzo[d][1,3]dioxol-5-yl)methyl)octahydrocyclopenta[c]pyrrol-5-amine]
3 | 0.292 | 4 | 0.0203 | Cc1cc(Br)cnc1CN1C[C@H]2C[C@H](Nc3ccc(S(=O)(=O)C4CCCCC4)nn3)C[C@H]2C1 [compound 45, (3aR,5s,6aS)-2-((5-bromo-3-methylpyridin-2-yl)methyl)-N-(6-(cyclohexylsulfonyl)pyridazin-3-yl)octahydrocyclopenta[c]pyrrol-5-amine]
27 | > 10 | 9 | 1.23 | O=S(=O)(c1ccc(N[C@H]2C[C@@H]3CN(CC4(O)CCOCC4)C[C@@H]3C2)nn1)C1CCCCC1 [compound 46, 4-(((3aR,5s,6aS)-5-((6-(cyclohexylsulfonyl)pyridazin-3-yl)amino)hexahydrocyclopenta[c]pyrrol-2(1H)-yl)methyl)tetrahydro-2H-pyran-4-ol]
9 | 1.57 | 4 | 0.116 | O=S(=O)(c1ccc(N[C@H]2C[C@@H]3CN(Cc4ccc5[nH]ccc5c4)C[C@@H]3C2)nn1)C1CCCCC1 [compound 47, (3aR,5s,6aS)-2-((1H-indol-5-yl)methyl)-N-(6-(cyclohexylsulfonyl)pyridazin-3-yl)octahydrocyclopenta[c]pyrrol-5-amine]
9 | 4.54 | 3 | 0.183 | O=S(=O)(c1ccc(N[C@H]2C[C@@H]3CN(Cc4ccc5cc[nH]c5c4)C[C@@H]3C2)nn1)C1CCCCC1 [compound 48, (3aR,5s,6aS)-2-((1H-indol-6-yl)methyl)-N-(6-(cyclohexylsulfonyl)pyridazin-3-yl)octahydrocyclopenta[c]pyrrol-5-amine]
4 | 0.0638 | 3 | 0.00575 | CC(C)(C)CCN1C[C@H]2C[C@H](Nc3ccc(S(=O)(=O)C4CCCCC4)nn3)C[C@H]2C1 [compound 49, (3aR,5s,6aS)-N-(6-(cyclohexylsulfonyl)pyridazin-3-yl)-2-(3,3-dimethylbutyl)octahydrocyclopenta[c]pyrrol-5-amine]
4 | 0.13 | 3 | 0.018 | CC(C)(C)CCN1C[C@H]2C[C@H](Nc3ccc(S(=O)(=O)c4ccccc4)nn3)C[C@H]2C1 [compound 50, (3aR, 5s,6aS)-2-(3,3-dimethylbutyl)-N-(6-(phenylsulfonyl)pyridazin-3-yl)octahydrocyclopenta[c]pyrrol-5-amine]
6 | 0.776 | 3 | 0.0121 | CC1(C)CC(N2C[C@H]3C[C@H](Nc4ccc(-c5ccccc5F)nn4)C[C@H]3C2)CCO1 (stereo partly drawn) [compound 52, (3aR,5s,6aS)-2-(2,2-dimethyltetrahydro-2H-pyran-4-yl)-N-(6-(2-fluorophenyl)pyridazin-3-yl)octahydrocyclopenta[c]pyrrol-5-amine]
5 | 0.295 | 3 | 0.00928 | CC1(C)CC(N2C[C@H]3C[C@H](Nc4ccc(-c5cccc(F)c5)nn4)C[C@H]3C2)CCO1 (stereo partly drawn) [compound 53, (3aR,5s,6aS)-2-(2,2-dimethyltetrahydro-2H-pyran-4-yl)-N-(6-(3-fluorophenyl)pyridazin-3-yl)octahydrocyclopenta[c]pyrrol-5-amine]
5 | 0.534 | 3 | 0.0329 | CC1(C)CC(N2C[C@H]3C[C@H](Nc4ccc(-c5ccc(F)cc5)nn4)C[C@H]3C2)CCO1 (stereo partly drawn) [compound 54, (3aR,5s,6aS)-2-(2,2-dimethyltetrahydro-2H-pyran-4-yl)-N-(6-(4-fluorophenyl)pyridazin-3-yl)octahydrocyclopenta[c]pyrrol-5-amine]
5 | 0.425 | 3 | 0.0135 | CC1(C)CC(N2C[C@H]3C[C@H](Nc4ccc(-c5cc(F)ccc5F)nn4)C[C@H]3C2)CCO1 (stereo partly drawn) [compound 55, (3aR,5s,6aS)-N-(6-(2,5-difluorophenyl)pyridazin-3-yl)-2-(2,2-dimethyltetrahydro-2H-pyran-4-yl)octahydrocyclopenta[c]pyrrol-5-amine]
14 | 7.25 | 4 | 0.0377 | CC1(C)CC(N2C[C@H]3C[C@H](Nc4ccc(-c5cccnc5)nn4)C[C@H]3C2)CCO1 (stereo partly drawn) [compound 56, (3aR,5s,6aS)-2-(2,2-dimethyltetrahydro-2H-pyran-4-yl)-N-(6-(pyridin-3-yl)pyridazin-3-yl)octahydrocyclopenta[c]pyrrol-5-amine]
9 | 2.03 | 2 | 0.0289 | Cc1cnn(C)c1-c1ccc(N[C@H]2C[C@@H]3CN(C4CCOC(C)(C)C4)C[C@@H]3C2)nn1 (stereo partly drawn) [compound 57, (3aR,5s,6aS)-N-(6-(1,4-dimethyl-1H-pyrazol-5-yl)pyridazin-3-yl)-2-(2,2-dimethyltetrahydro-2H-pyran-4-yl)octahydrocyclopenta[c]pyrrol-5-amine]
6 | 0.506 | 3 | 0.0298 | CC1(C)CC(N2C[C@H]3C[C@H](Nc4ccc(N5CCC(F)(F)CC5)nn4)C[C@H]3C2)CCO1 (stereo partly drawn) [compound 58, (3aR,5s,6aS)-N-(6-(4,4-difluoropiperidin-1-yl)pyridazin-3-yl)-2-(2,2-dimethyltetrahydro-2H-pyran-4-yl)octahydrocyclopenta[c]pyrrol-5-amine]
6 | 0.319 | 4 | 0.0761 | CC(=O)Nc1ccc(-c2ccc(N[C@H]3C[C@@H]4CN(C5CCOC(C)(C)C5)C[C@@H]4C3)nn2)cn1 (stereo partly drawn) [compound 59, N-(5-(6-(((3aR,5s,6aS)-2-(2,2-dimethyltetrahydro-2H-pyran-4-yl)octahydrocyclopenta[c]pyrrol-5-yl)amino)pyridazin-3-yl)pyridin-2-yl)acetamide]
14 | 5.17 | 5 | 0.0494 | CC1(C)CC(N2C[C@H]3C[C@H](Nc4ccc(N5CCOCC5)nn4)C[C@H]3C2)CCO1 (stereo partly drawn) [compound 60, (3aR,5s,6aS)-2-(2,2-dimethyltetrahydro-2H-pyran-4-yl)-N-(6-morpholinopyridazin-3-yl)octahydrocyclopenta[c]pyrrol-5-amine]

SMILES | remaining activity at 30 µM (Rat M4) [%] | IC50 (Rat M4) [µM] | remaining activity at 30 µM (Human M4) [%] | IC50 (Human M4) [µM]
CC1(C)CC(N2C[C@H]3C[C@H](Nc4ccc(Cl)nn4)C[C@H]3C2)CCO1 (stereo partly drawn) [compound 51, (3aR,5s,6aS)-N-(6-chloropyridazin-3-yl)-2-(2,2-dimethyltetrahydro-2H-pyran-4-yl)octahydrocyclopenta[c]pyrrol-5-amine] | 38 | > 10 | 9 | 8.56
